# Data as given in US11723908B2, “Quinazoline derivatives as antitumor agents” (SUZHOU ZANRONG PHARMA LIMITED, priority 2018, dated 2023).
# Read-outs that look alike come from different tables or passages of the source.
# What was measured:
# [1] = target: wt-EGFR (Homo sapiens (Human), UniProt P00533); experiment: NCI H838 cellular assay (wt-EGFR inhibition), phospho-EGFR ELISA; format: cell-based
# Description: Assay b) NCI H838 Cellular Assay (Wt-EGFR Inhibition) Inhibition of phosphor wt-EGFR was determined by enzyme-linked immunosorbent assay (ELISA) in NCI H838 cells (ATCC, catalog number CRL-5844). Human Phospho-EGFR DuoSet IC ELISA kit was purchased from R&D systems (catalog number DYC1095). Day 1: When the cells reach 70-90% confluence, cells were trypsinized and re-suspended. 5000 cells per well were seeded to a 384-well plate. The plate was incubated at 37° C. with 5% CO2 for 24 hours. Day 2: Cell culture medium was replaced with 40 μL FBS-Free RPMI1640. After 2 hours of starvation, the 384-well plate was dosed with 40 nL of compounds by Echo from source plate and the 384-well plate was incubated at 37° C. with 5% CO2 for 2 hours. After 2 hours of incubation with compounds, EGF (final concentration at 100 ng/ml) was added to the plate which was incubated at 37° C. with 5% CO2 for 5-10 minutes. Medium was discarded from the plate and 30 μl/well lysis buffer was added to the plate which was incubated at 4° C. for 10 minutes. The cell lysates can be stored at −80° C. in cell plates but must be thawed at room temperature for at least 30 minutes prior to use and continuing the assay. ELISA plate was coated by diluting capture antibody to 4 μg/ml with PBS, and 25 μl/well was dispensed to 384 well UltraCruz® ELISA Plate, which was incubated at 4° C. overnight. Day 3: After the plates were washed three times with 100 μl/well of wash buffer, the plates were blocked by adding 75 μl of Block Buffer to each well and incubated at room temperature for 3 hours. After the plates were washed three times with 100 μl/well of wash buffer, 20 μl cell lysate was transferred to the blocked ELISA plate which was incubated for 2 hours at room temperature. After the plates were washed three times with 100 μl/well of wash buffer, 25 μl/well detection antibody (dilute 1 in 900 in assay buffer) was added the plate which was incubated for 2 hours, protected from light. After washed three times, 25 μl/well TMB substrate was added to the ELISA plate which was incubated for about 10-15 min, protected from light before addition of 25 μl/well stop solution. Absorbance was read at 450 nm and 570 nm within 30 minutes.
# [2] = target: HER2 (Homo sapiens (Human), UniProt P04626); experiment: BT474 cellular assay (HER2 inhibition), phospho-HER2 ELISA; format: cell-based; settings: inhibition of phosphor HER2, BT474 cells, 2 hours compound incubation
# Description: Assay a) BT474 Cellular Assay (HER2 Inhibition) Inhibition of phosphor HER2 was determined by enzyme-linked immunosorbent assay (ELISA) in BT474 cells. BT474 cell line was purchased from [NT] number HTB-20). Human Phospho-ErbB2 ELISA kit was purchased from R&D systems (catalog number DYC1768). Day 1: When the cells reach 70-90% confluence, cells were trypsinized and re-suspended. 5000 cells per well were seeded to a 384-well plate. The plate was incubated at 37° C. with 5% CO2 for 24 hours. ELISA plate was coated with 2 μg/ml capture antibody, which was incubated at 4° C. overnight. Day 2: 25 nl compounds was dosed by Echo from source plate and the 384-well plate was incubated at 37° C. for 2 hours. 30 μl lysis buffer was added to each well and the 384-well plate was shaken softly at 4° C. for 30 minutes. The ELISA plate was washed, blocked and incubated at room temperature for 1-2 hours. The blocked ELISA plate was washed and 20 μl cell lysate was transferred from the 384-well plate to the ELISA plate, which was incubated overnight at 4° C. Day 3: The ELISA plate was washed 3 times. 25 μl/well detection antibody was added (diluted 1 by 2000 in 1% BSA in PBS). After 2 hours of incubation with detection antibody, the ELISA plate was washed 3 times, 25 μl/well TMB substrate was added and incubated for 10-15 minutes before stop solution was added. Absorbance at 450 nm and 570 nm was read within 30 minutes after adding the stop solution. […] The IC50 results are provided in Table 1 for some exemplary compounds.
# [3] = inhibition of phosphor wt-EGFR, NCI H838 cells, EGF 100 ng/ml
# HER2, sequence (P04626 23-1255): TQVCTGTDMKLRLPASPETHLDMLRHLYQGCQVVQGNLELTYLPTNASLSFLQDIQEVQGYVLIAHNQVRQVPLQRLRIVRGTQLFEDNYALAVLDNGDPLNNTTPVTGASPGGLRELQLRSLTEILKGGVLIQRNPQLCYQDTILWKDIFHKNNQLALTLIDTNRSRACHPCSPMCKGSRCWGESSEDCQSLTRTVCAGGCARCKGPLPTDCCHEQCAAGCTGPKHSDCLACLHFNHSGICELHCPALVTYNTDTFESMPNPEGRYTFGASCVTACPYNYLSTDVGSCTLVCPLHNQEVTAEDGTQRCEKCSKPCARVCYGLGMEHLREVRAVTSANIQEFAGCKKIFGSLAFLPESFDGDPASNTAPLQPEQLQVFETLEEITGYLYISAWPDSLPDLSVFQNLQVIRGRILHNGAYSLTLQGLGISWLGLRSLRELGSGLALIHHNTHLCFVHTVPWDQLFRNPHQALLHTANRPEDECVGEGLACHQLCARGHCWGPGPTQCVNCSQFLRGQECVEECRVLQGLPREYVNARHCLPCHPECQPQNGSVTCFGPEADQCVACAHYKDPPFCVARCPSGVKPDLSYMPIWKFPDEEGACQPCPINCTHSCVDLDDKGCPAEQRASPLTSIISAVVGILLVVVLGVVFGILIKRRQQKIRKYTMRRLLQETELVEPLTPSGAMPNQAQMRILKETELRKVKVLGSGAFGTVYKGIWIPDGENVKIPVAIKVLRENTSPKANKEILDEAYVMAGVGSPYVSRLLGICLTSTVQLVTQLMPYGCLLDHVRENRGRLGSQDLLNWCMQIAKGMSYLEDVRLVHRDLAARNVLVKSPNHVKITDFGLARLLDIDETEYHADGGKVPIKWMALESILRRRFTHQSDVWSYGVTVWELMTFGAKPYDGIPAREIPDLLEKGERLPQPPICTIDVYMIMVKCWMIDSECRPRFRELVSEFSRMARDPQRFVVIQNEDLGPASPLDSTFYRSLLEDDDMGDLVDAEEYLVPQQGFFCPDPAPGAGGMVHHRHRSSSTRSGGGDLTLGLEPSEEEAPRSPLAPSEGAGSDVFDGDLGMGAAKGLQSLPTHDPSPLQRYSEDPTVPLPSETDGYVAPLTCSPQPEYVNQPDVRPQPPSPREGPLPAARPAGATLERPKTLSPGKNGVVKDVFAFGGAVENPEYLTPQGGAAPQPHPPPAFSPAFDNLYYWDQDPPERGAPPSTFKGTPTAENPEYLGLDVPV
# wt-EGFR, sequence (P00533 25-1210): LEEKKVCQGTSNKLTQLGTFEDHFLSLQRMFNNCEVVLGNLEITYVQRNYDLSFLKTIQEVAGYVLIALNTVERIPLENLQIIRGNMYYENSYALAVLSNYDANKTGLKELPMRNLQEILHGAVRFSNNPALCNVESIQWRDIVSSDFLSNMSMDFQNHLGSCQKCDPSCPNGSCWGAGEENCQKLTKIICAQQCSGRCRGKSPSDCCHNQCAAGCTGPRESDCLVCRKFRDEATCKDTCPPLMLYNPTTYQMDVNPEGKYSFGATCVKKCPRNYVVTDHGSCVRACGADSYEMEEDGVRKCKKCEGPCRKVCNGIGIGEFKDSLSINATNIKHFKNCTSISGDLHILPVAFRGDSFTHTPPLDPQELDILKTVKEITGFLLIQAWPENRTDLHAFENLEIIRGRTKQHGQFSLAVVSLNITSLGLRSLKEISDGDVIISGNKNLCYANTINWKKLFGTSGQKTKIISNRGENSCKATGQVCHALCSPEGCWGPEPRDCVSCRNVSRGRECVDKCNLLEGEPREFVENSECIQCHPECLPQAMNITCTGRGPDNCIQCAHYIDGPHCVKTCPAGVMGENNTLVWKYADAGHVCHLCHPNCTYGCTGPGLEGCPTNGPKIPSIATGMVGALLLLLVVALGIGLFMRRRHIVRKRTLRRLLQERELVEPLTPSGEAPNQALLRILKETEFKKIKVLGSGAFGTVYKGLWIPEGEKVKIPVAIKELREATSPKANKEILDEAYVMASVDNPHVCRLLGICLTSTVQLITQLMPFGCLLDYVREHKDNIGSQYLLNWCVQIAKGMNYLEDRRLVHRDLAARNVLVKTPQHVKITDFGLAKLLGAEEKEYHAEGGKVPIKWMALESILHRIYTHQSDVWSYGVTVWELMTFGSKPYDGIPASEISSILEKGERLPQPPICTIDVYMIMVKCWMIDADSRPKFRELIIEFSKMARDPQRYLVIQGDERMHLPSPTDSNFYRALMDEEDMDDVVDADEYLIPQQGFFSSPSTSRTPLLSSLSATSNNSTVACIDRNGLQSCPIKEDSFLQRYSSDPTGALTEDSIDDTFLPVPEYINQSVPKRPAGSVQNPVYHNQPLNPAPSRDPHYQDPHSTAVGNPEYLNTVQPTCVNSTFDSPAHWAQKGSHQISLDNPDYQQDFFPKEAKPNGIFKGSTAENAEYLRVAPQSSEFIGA
Compound,"IC50 [1, 3] [nM]",IC50 [2] [nM],IC50 [1] [nM]
"COc1ccc2ncnc(Nc3ccc(Oc4cc5ncnn5cn4)c(C)c3)c2c1N1CC2(C[C@H](F)CN2C)C1 (single isomer, unassigned) [Example 43]",2030,24,
"COc1ccc2ncnc(Nc3ccc(Oc4cc5ncnn5cn4)c(C)c3)c2c1N1CC2(C[C@@H](F)CN2C)C1 (single isomer, unassigned) [Example 44]",234,5,
"COc1ccc2ncnc(Nc3ccc(Oc4cc5ncnn5cn4)c(C)c3)c2c1N1CC2(C[C@H](F)CCN2C)C1 (single isomer, unassigned) [Example 47]",4540,4.1,
"COc1ccc2ncnc(Nc3ccc(Oc4cc5ncnn5cn4)c(C)c3)c2c1N1CC2(C[C@@H](F)CCN2C)C1 (single isomer, unassigned) [Example 48]",364,6.7,
"COc1ccc2ncnc(Nc3ccc(Oc4cc5ncnn5cn4)c(C)c3)c2c1N1CC(N(C)C)C1 [Example 1, N-(4-([1,2,4]triazolo[1,5-c]pyrimidin-7-yloxy)-3-methylphenyl)-5-(3-(dimethylamino)azetidin-1-yl)-6-methoxyquinazolin-4-amine]",2800,9.2,
"COc1ccc2ncnc(Nc3ccc(Oc4cc5ncnn5cn4)c(C)c3)c2c1N1CC[C@H](N(C)C)C1 [Example 3, (S)—N-(4-([1,2,4]triazolo[1,5-c]pyrimidin-7-yloxy)-3-methylphenyl)-5-(3-(dimethylamino)pyrrolidin-1-yl)-6-methoxyquinazolin-4-amine]",330,31,
"COc1ccc2ncnc(Nc3ccc(Oc4cc5ncnn5cn4)c(C)c3)c2c1N1CCOCC1 [Example 4, N-(4-([1,2,4]triazolo[1,5-c]pyrimidin-7-yloxy)-3-methylphenyl)-6-methoxy-5-morpholinoquinazolin-4-amine]",> 10000,105,
"CCOc1ccc2ncnc(Nc3ccc(Oc4cc5ncnn5cn4)c(C)c3)c2c1N1CC(N(C)C)C1 [Example 11, N-(4-([1,2,4]triazolo[1,5-c]pyrimidin-7-yloxy)-3-methylphenyl)-5-(3-(dimethylamino)azetidin-1-yl)-6-ethoxyquinazolin-4-amine]",6700,13,
"Cc1cc(Nc2ncnc3ccc(OCCF)c(N4CC(N(C)C)C4)c23)ccc1Oc1cc2ncnn2cn1 [Example 12, N-(4-([1,2,4]triazolo[1,5-c]pyrimidin-7-yloxy)-3-methylphenyl)-5-(3-(dimethylamino)azetidin-1-yl)-6-(2-fluoroethoxy)quinazolin-4-amine]",180,26,
"COc1ccc2ncnc(Nc3ccc(Oc4cc5ncnn5cn4)c(C)c3)c2c1O[C@H]1CCN(C)CC1(F)F [Example 32, (S)—N-(4-([1,2,4]triazolo[1,5-c]pyrimidin-7-yloxy)-3-methylphenyl)-5-((3,3-difluoro-1-methylpiperidin-4-yl)oxy)-6-methoxyquinazolin-4-amine]",,16,4800
"COc1ccc2ncnc(Nc3ccc(Oc4cc5ncnn5cn4)c(Cl)c3)c2c1O[C@H]1CCN(C)CC1(F)F [Example 34, (S)—N-(4-([1,2,4]triazolo[1,5-c]pyrimidin-7-yloxy)-3-chlorophenyl)-5-((3,3-difluoro-1-methylpiperidin-4-yl)oxy)-6-methoxyquinazolin-4-amine]",6300,18,
"[2H]C([2H])([2H])N1CCC(Oc2c(OC)ccc3ncnc(Nc4ccc(Oc5cc6ncnn6cn5)c(C)c4)c23)C(F)(F)C1 (stereo not shown) [Example 35, N-(4-([1,2,4]triazolo[1,5-c]pyrimidin-7-yloxy)-3-methylphenyl)-5-((3,3-difluoro-1-(methyl-d3)piperidin-4-yl)oxy)-6-methoxyquinazolin-4-amine]",,16,1280
"[2H]C([2H])([2H])Oc1ccc2ncnc(Nc3ccc(Oc4cc5ncnn5cn4)c(C)c3)c2c1O[C@H]1CCN(C)CC1(F)F [Example 37, (S)—N-(4-([1,2,4]triazolo[1,5-c]pyrimidin-7-yloxy)-3-methylphenyl)-5-((3,3-difluoro-1-methylpiperidin-4-yl)oxy)-6-(methoxy-d3)quinazolin-4-amine]",,12,> 10000
"COc1ccc2ncnc(Nc3ccc(Oc4cc5ncnn5cn4)c(C)c3)c2c1N1CC2(CN(C)CCO2)C1 [Example 38, N-(4-([1,2,4]triazolo[1,5-c]pyrimidin-7-yloxy)-3-methylphenyl)-6-methoxy-5-(8-methyl-5-oxa-2,8-diazaspiro[3.5]nonan-2-yl)quinazolin-4-amine]",> 10000,37,
"COc1ccc2ncnc(Nc3ccc(Oc4cc5ncnn5cn4)c(C)c3)c2c1N1C[C@@H](N(C)C)[C@@H](F)C1 [Example 39, N-(4-([1,2,4]triazolo[1,5-c]pyrimidin-7-yloxy)-3-methylphenyl)-5-((3R,4S)-3-(dimethylamino)-4-fluoropyrrolidin-1-yl)-6-methoxyquinazolin-4-amine]",> 10000,94,
"COc1ccc2ncnc(Nc3ccc(Oc4cc5ncnn5cn4)c(C)c3)c2c1N1C[C@@H](F)[C@H](N(C)C)C1 [Example 40, N-(4-([1,2,4]triazolo[1,5-c]pyrimidin-7-yloxy)-3-methylphenyl)-5-((3R,4R)-3-(dimethylamino)-4-fluoropyrrolidin-1-yl)-6-methoxyquinazolin-4-amine]",> 10000,63,
"COc1ccc2ncnc(Nc3ccc(Oc4cc5ncnn5cn4)c(C)c3)c2c1N1CC2(COCCN2C)C1 [Example 41, N-(4-([1,2,4]triazolo[1,5-c]pyrimidin-7-yloxy)-3-methylphenyl)-6-methoxy-5-(5-methyl-8-oxa-2,5-diazaspiro[3.5]nonan-2-yl)quinazolin-4-amine]",2260,35,
"COc1ccc2ncnc(Nc3ccc(Oc4cc5ncnn5cn4)c(C)c3)c2c1N1CC2OCCN(C)C2C1 (stereo not shown) [Example 42, N-(4-([1,2,4]triazolo[1,5-c]pyrimidin-7-yloxy)-3-methylphenyl)-6-methoxy-5-(4-methylhexahydropyrrolo[3,4-b][1,4]oxazin-6(2H)-yl)quinazolin-4-amine]",> 10000,58,
"COc1ccc2ncnc(Nc3ccc(Oc4cc5ncnn5cn4)c(C)c3)c2c1N1C[C@H]2[C@@H]1CCN2C [Example 45, N-(4-([1,2,4]triazolo[1,5-c]pyrimidin-7-yloxy)-3-methylphenyl)-6-methoxy-5-((1S,5S)-2-methyl-2,6-diazabicyclo[3.2.0]heptan-6-yl)quinazolin-4-amine]",6600,2.5,
"Cc1cc(Nc2ncnc3ccc(NC(=O)/C=C/[C@H]4CCCN4C)c(O[C@@H]4CCN(C)CC4(F)F)c23)ccc1Oc1cc2ncnn2cn1 [Example 95, (E)-N-(4-((4-([1,2,4]triazolo[1,5-c]pyrimidin-7-yloxy)-3-methylphenyl)amino)-5-(((R)-3,3-difluoro-1-methylpiperidin-4-yl)oxy)quinazolin-6-yl)-3-((R)-1-methylpyrrolidin-2-yl)acrylamide]",,48,
"COc1cc2ncnc(Nc3ccc(Oc4cc5ncnn5cn4)c(C)c3)c2c(O[C@@H]2CCN(C)CC2(F)F)c1OC [Example 99, (R)—N-(4-([1,2,4]triazolo[1,5-c]pyrimidin-7-yloxy)-3-methylphenyl)-5-((3,3-difluoro-1-methylpiperidin-4-yl)oxy)-6,7-dimethoxyquinazolin-4-amine]",,170,
